*1 amine or outer side, *2 acyl side, *3 side chain or, on linkers, in order; H or OH if unused. Where a SMILES comes first, the peptide text is derived from it. Bridges are numbered along the chain shown (N, C = ends). [ ]: non-standard residue; d: D form. ξ: configuration not given here. Trp(1-CH2COOH) = N[C@@H](Cc1cn(CC(=O)O)c2ccccc12)C(=O)O; Phe(3,4,5-F3) = N[C@@H](Cc1cc(F)c(F)c(F)c1)C(=O)O; Trp(5-OH) = N[C@@H](Cc1c[nH]c2ccc(O)cc12)C(=O)O; Phe(3,4-F2) = N[C@@H](Cc1ccc(F)c(F)c1)C(=O)O; NMePhe(4-F) = CN[C@@H](Cc1ccc(F)cc1)C(=O)O; d(cisHyp) = O=C(O)[C@H]1C[C@@H](O)CN1; Bta = N[C@@H](Cc1csc2ccccc12)C(=O)O; Hyp = O=C(O)[C@@H]1C[C@@H](O)CN1; NMeF = CN[C@@H](Cc1ccccc1)C(=O)O; X1 = O=C([C@H]1COCCN1[*:1])[*:2]; dNMeF = CN[C@H](Cc1ccccc1)C(=O)O; dHyp = O=C(O)[C@H]1C[C@H](O)CN1; NMehSer = CN[C@@H](CCO)C(=O)O; Thr(3ξ) = CC(O)[C@H](N)C(=O)O; NMeNle = CCCC[C@H](NC)C(=O)O; Pip = O=C(O)[C@@H]1CCCCN1; NMeA = CN[C@@H](C)C(=O)O; Orn = NCCC[C@H](N)C(=O)O; dThz = O=C(O)[C@H]1CSCN1; Dab = NCC[C@H](N)C(=O)O; Dap = NC[C@H](N)C(=O)O; ξC = NC(CS)C(=O)O; Sar = CNCC(=O)O
biological target: T1, Human PD-L1/PD-1 (Homo sapiens, UniProt Q9NZQ7); assay: HTRF Human PD-L1/PD-1 binding assay (PD-1-Ig/PD-L1-His); conditions: PD-L1-His 10 nM, PD-1-Ig 20 nM; class symbol; read-out: HTRF Human PD-L1/PD-1 Binding Assay IC50 Range
T1 construct: TVMV protease cleavage site (C); made in house; host or cells: HEK293T cells
Method in brief: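 Inhibitors were preincubated 15 min with human PD-L1(18-239)-His (10 nM final), then PD-1(25-167)-Ig (20 nM final) was added for 15 min in dPBS/0.1% BSA/0.05% Tween-20. Eu-cryptate anti-Ig (1 nM) and APC anti-His (20 nM) were added; 665/620 nm ratio read after 30 min.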

T1 sequence (Q9NZQ7 with tags, fused parts or gaps): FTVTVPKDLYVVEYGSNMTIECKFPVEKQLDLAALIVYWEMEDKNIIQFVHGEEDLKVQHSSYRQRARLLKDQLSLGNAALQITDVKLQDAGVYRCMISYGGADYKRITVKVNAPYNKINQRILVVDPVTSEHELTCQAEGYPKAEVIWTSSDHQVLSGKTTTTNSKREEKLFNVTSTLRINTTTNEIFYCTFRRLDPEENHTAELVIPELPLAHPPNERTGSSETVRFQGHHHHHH

Row | SMILES | IC50
1 | CCCC[C@H]1C(=O)N(C)[C@@H](CCCC)C(=O)N[C@@H](CC(C)C)C(=O)N[C@H](C(=O)NCC(N)=O)CSCC(=O)N[C@@H](Cc2ccc(O)cc2)C(=O)N(C)[C@@H](C)C(=O)N[C@@H](CC(=O)O)C(=O)N2CCC[C@H]2C(=O)N[C@@H](Cc2cnc[nH]2)C(=O)N[C@@H](CCC(=O)O)C(=O)N2C[C@H](O)C[C@H]2C(=O)N[C@@H](Cc2c[nH]c3ccccc23)C(=O)N[C@@H](CCN)C(=O)N[C@@H](Cc2cn(CC(=O)O)c3ccccc23)C(=O)N1C [Example 6141] ({CH2CO}-Y[NMeA]DPHE[Hyp]W[Dab][Trp(1-CH2COOH)][NMeNle][NMeNle]LCG-NH2; thioether N-14) | 1 to 9.9 nM
2 | CCCC[C@H]1C(=O)N(C)[C@@H](CCCC)C(=O)N[C@@H](CC(C)C)C(=O)N[C@H](C(=O)NCC(N)=O)CSCC(=O)N[C@@H](Cc2ccc(O)cc2)C(=O)N2CCCC[C@H]2C(=O)N[C@@H](CC(N)=O)C(=O)N2CCC[C@H]2C(=O)N[C@@H](Cc2cnc[nH]2)C(=O)N[C@@H](CCC(N)=O)C(=O)N2C[C@H](O)C[C@H]2C(=O)N[C@@H](Cc2c[nH]c3ccccc23)C(=O)N[C@@H](CO)C(=O)N[C@@H](Cc2c[nH]c3ccccc23)C(=O)N1C [Example 1273] ({CH2CO}-Y[Pip]NPHQ[Hyp]WSW[NMeNle][NMeNle]LCG-NH2; thioether N-14) | 1 to 9.9 nM
3 | CCCC[C@H]1C(=O)N(C)[C@@H](CCCC)C(=O)N[C@@H](C(C)O)C(=O)N[C@H](C(=O)NCC(N)=O)CSCC(=O)N[C@@H](Cc2ccc(OC)cc2)C(=O)N(C)[C@@H](C)C(=O)N[C@@H](CC(N)=O)C(=O)N2CCC[C@H]2C(=O)N[C@@H](Cc2c[nH]cn2)C(=O)N[C@@H](CCC(N)=O)C(=O)N2C[C@H](O)C[C@H]2C(=O)N[C@@H](Cc2c[nH]c3ccccc23)C(=O)N[C@@H](CO)C(=O)N[C@@H](Cc2cn(CC(=O)O)c3ccccc23)C(=O)N1C (some centres unmarked) [Example 7145] ({CH2CO}-Y(Me)[NMeA]NPHQ[Hyp]WS[Trp(1-CH2COOH)][NMeNle][NMeNle][Thr(3ξ)]CG-NH2; thioether N-14) | 1 to 9.9 nM
4 | CCCC[C@H]1C(=O)N(C)[C@@H](CCCC)C(=O)N[C@@H](CCC(=O)O)C(=O)N[C@H](C(=O)NCC(N)=O)CSCC(=O)N[C@@H](Cc2ccc(OC)cc2)C(=O)N(C)[C@@H](C)C(=O)N[C@@H](CC(=O)O)C(=O)N2CCC[C@H]2C(=O)N[C@@H](CN)C(=O)N[C@@H](CCC(=O)O)C(=O)N2C[C@H](O)C[C@H]2C(=O)N[C@@H](Cc2c[nH]c3ccccc23)C(=O)N[C@@H](CCN)C(=O)N[C@@H](Cc2c[nH]c3ccc(O)cc23)C(=O)N1C [Example 7152] ({CH2CO}-Y(Me)[NMeA]DP[Dap]E[Hyp]W[Dab][Trp(5-OH)][NMeNle][NMeNle]ECG-NH2; thioether N-14) | 10 to 99.9 nM
5 | CCCC[C@H]1C(=O)N(C)[C@@H](CCCC)C(=O)N[C@@H](CO)C(=O)NC(C(=O)NCC(N)=O)CSCC(=O)N[C@@H](Cc2ccc(O)cc2)C(=O)N(C)[C@@H](C)C(=O)N[C@@H](CC(N)=O)C(=O)N2CCC[C@H]2C(=O)N[C@@H](CC(N)=O)C(=O)N[C@@H](CC(C)C)C(=O)N2CCC[C@H]2C(=O)N[C@@H](Cc2c[nH]c3ccccc23)C(=O)N[C@@H](CO)C(=O)N[C@@H](Cc2c[nH]c3ccccc23)C(=O)N1C (some centres unmarked) [Example 9140] ({CH2CO}-Y[NMeA]NPNLPWSW[NMeNle][NMeNle]S[ξC]G-NH2; thioether N-14) | 1 to 9.9 nM

Second part, the compound after the results:

Row | IC50 | SMILES
6 | 10 to 99.9 nM | CCCC[C@H]1C(=O)N2CSC[C@@H]2C(=O)N[C@@H](CN)C(=O)N[C@@H](C(C)C)C(=O)N(C)[C@@H](Cc2ccccc2)C(=O)N[C@@H](Cc2ccc(O)cc2)C(=O)N2CCC[C@@H]2C(=O)N[C@@H](Cc2c[nH]c3ccccc23)C(=O)N[C@@H](Cc2ccc(O)cc2)C(=O)N[C@@H](CC(C)C)C(=O)N[C@H](C(=O)NCC(N)=O)CSCC(=O)N[C@@H](Cc2ccccc2)C(=O)N(C)[C@@H](Cc2ccccc2)C(=O)N1C [Example 10075] ({CH2CO}-F[NMeF][NMeNle][dThz][Dap]V[NMeF]Y[dP]WYLCG-NH2; thioether N-13)
7 | 1000 to 10000 nM | CCCC[C@H]1C(=O)N(C)CC(=O)N[C@@H](CC(=O)O)C(=O)N[C@@H](C(C)C)C(=O)N(C)[C@@H](Cc2ccccc2)C(=O)N[C@@H](Cc2ccc(O)cc2)C(=O)N(C)CC(=O)N[C@@H](Cc2c[nH]c3ccccc23)C(=O)N[C@@H](Cc2ccc(O)cc2)C(=O)N[C@@H](CC(C)C)C(=O)N[C@H](C(=O)NCC(N)=O)CSCC(=O)N[C@@H](Cc2csc3ccccc23)C(=O)N(C)[C@@H](Cc2ccccc2)C(=O)N1C [Example 3245] ({CH2CO}-[Bta][NMeF][NMeNle][Sar]DV[NMeF]Y[Sar]WYLCG-NH2; thioether N-13)
8 | 1 to 9.9 nM | CCCC[C@H]1C(=O)N2C[C@H](O)C[C@@H]2C(=O)N[C@@H](CC(=O)O)C(=O)N[C@@H](C(C)C)C(=O)N(C)[C@@H](Cc2ccccc2)C(=O)N[C@@H](CC(N)=O)C(=O)N2C[C@H](O)C[C@@H]2C(=O)N[C@@H](Cc2c[nH]c3ccccc23)C(=O)N[C@@H](Cc2ccc(O)cc2)C(=O)N[C@@H](CCCN)C(=O)N[C@H](C(=O)NCC(N)=O)CSCC(=O)N[C@@H](Cc2cc(F)c(F)c(F)c2)C(=O)N(C)[C@@H](Cc2ccccc2)C(=O)N1C [Example 9363] ({CH2CO}-[Phe(3,4,5-F3)][NMeF][NMeNle][d(cisHyp)]DV[NMeF]N[d(cisHyp)]WY[Orn]CG-NH2; thioether N-13)
9 | 10 to 99.9 nM | CCCC[C@H]1C(=O)N2C[C@@H](O)C[C@@H]2C(=O)N[C@@H](CC(=O)O)C(=O)N[C@@H](C(C)C)C(=O)N(C)[C@H](Cc2ccccc2)C(=O)N[C@@H](Cc2ccc(OC)cc2)C(=O)N2C[C@@H](O)C[C@@H]2C(=O)N[C@@H](Cc2c[nH]c3ccccc23)C(=O)N[C@@H](Cc2ccc(O)cc2)C(=O)N[C@@H](CC(C)C)C(=O)N[C@H](C(=O)NCC(N)=O)CSCC(=O)N[C@@H](Cc2ccc(F)c(F)c2)C(=O)N(C)[C@@H](Cc2ccccc2)C(=O)N1C [Example 9226] ({CH2CO}-[Phe(3,4-F2)][NMeF][NMeNle][dHyp]DV[dNMeF]Y(Me)[dHyp]WYLCG-NH2; thioether N-13)
10 | 1 to 9.9 nM | COCC[C@H]1C(=O)N2C[C@@H](O)C[C@@H]2C(=O)N[C@@H](CC(=O)O)C(=O)N[C@@H](C(C)C)C(=O)N(C)[C@@H](Cc2ccccc2)C(=O)N[C@@H](CCC(N)=O)C(=O)N2CCOC[C@@H]2C(=O)N[C@@H](Cc2c[nH]c3ccccc23)C(=O)N[C@@H](Cc2ccc(O)cc2)C(=O)N[C@@H](CC(C)C)C(=O)N[C@H](C(=O)NCC(N)=O)CSCC(=O)N[C@@H](Cc2cc(F)c(F)c(F)c2)C(=O)N(C)[C@@H](Cc2ccccc2)C(=O)N1C [Example 9266] ({CH2CO}-[Phe(3,4,5-F3)][NMeF][NMehSer](Me)[dHyp]DV[NMeF]Q[X1]WYLCG-NH2; thioether N-13)
11 | 1 to 9.9 nM | CCCC[C@H]1C(=O)N2C[C@@H](O)C[C@@H]2C(=O)N[C@@H](CC(=O)O)C(=O)N[C@@H](C(C)C)C(=O)N(C)[C@@H](Cc2ccc(F)cc2)C(=O)N[C@@H](CCC(=O)O)C(=O)N2CCC[C@@H]2C(=O)N[C@@H](Cc2c[nH]c3ccccc23)C(=O)N[C@@H](Cc2ccc(O)cc2)C(=O)N[C@@H](CC(C)C)C(=O)N[C@H](C(=O)NCC(N)=O)CSCC(=O)N[C@@H](Cc2cc(F)c(F)c(F)c2)C(=O)N(C)[C@@H](Cc2ccccc2)C(=O)N1C [Example 10116] ({CH2CO}-[Phe(3,4,5-F3)][NMeF][NMeNle][dHyp]DV[NMePhe(4-F)]E[dP]WYLCG-NH2; thioether N-13)

Source: patent US10538555B2, “Macrocyclic inhibitors of the PD-1/PD-L1 and CD80(B7-1)/PD-L1 protein/protein interactions” (BRISTOL-MYERS SQUIBB COMPANY, priority 2014, dated 2020)
